Where two headings read alike, the source gives them in different places.
Experiments:
[1] = molecular target: T1, PI3Kγ (p120γ) (Homo sapiens, UniProt P48736); assay: Inhibition of PI3K kinase activity (ADP Glo), PI3Kγ; conditions: read-out: biochemical potency (PI3Kγ IC50)
T1 construct: purchased Promega V1761
Outline: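 IC50 values come from a 4-parameter nonlinear fit of ADP-Glo luminescence, which measures ADP produced as PIP2 is phosphorylated to PIP3. The p120γ enzyme (2× stock 8 nM) sat with compound 1 h at rt before substrate (2× stocks: 50 μM ATP, 0.1 mg/ml PIP2) was added. Phosphorylation then proceeded 60 min at rt.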

[2] = molecular target: T2, PI3Kγ (Homo sapiens, UniProt P48736); assay: PI3Kγ cellular assay in THP-1 cells (AKT pS473 AlphaLISA); type: cell-based
T2 construct: host or cells: THP-1
Outline: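 Endogenous AKT S473 phosphorylation, detected by AlphaLISA in lysates, serves as the PI3Kγ activity read-out in stimulated, serum-starved THP-1 cells (1.8×10^5/well).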

[3] = Table 1, rhMCP-1 stimulated AKT pS473, read-out: cellular potency (PI3Kγ IC50)
[4] = Table 3, rhMCP-1 stimulated AKT pS473, read-out: cellular potency (PI3Kγ IC50)
[5] = Table 6, rhMCP-1 stimulated AKT pS473, read-out: cellular potency (PI3Kγ IC50)
[6] = Table 2, rhMCP-1 stimulated AKT pS473, read-out: cellular potency (PI3Kγ IC50)
[7] = AKT pS473, read-out: cellular potency (PI3Kγ IC50)

T1 sequence (P48736 whole entry): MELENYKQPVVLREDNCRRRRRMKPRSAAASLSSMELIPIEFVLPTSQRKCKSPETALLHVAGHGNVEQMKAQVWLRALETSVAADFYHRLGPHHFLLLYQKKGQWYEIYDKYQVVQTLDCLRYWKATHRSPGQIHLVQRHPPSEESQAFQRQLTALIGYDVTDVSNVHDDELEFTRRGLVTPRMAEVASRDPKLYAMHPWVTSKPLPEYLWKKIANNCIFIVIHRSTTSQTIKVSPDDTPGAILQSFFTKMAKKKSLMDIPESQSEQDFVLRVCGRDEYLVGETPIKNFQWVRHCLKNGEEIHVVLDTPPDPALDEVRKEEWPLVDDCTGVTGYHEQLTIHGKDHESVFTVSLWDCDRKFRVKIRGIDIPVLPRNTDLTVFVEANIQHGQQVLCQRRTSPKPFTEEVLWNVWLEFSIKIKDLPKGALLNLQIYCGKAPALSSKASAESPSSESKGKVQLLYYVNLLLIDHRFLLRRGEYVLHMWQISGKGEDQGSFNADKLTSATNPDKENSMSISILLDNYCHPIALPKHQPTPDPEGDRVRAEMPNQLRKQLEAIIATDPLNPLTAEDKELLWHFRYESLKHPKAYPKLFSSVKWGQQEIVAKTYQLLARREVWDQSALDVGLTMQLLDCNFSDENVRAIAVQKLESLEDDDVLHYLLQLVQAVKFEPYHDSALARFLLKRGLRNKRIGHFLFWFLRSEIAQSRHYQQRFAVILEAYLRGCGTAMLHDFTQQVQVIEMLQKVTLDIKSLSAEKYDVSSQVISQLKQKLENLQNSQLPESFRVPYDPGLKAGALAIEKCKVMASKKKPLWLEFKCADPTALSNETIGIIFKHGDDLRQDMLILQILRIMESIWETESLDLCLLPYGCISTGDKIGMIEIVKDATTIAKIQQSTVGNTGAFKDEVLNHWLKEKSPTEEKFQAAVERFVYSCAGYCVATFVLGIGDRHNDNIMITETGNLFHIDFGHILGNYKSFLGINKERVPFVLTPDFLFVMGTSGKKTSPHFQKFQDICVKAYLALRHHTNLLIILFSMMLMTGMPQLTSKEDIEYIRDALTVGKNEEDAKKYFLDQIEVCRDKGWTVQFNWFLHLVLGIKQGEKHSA
T2 sequence (P48736 whole entry): as above

C[C@@H](C1CC1)N1Cc2cc(-c3ccn4nc(N)c(C(=O)NC5CC5)c4n3)cc(OC3CC(F)(F)C3)c2C1=O [Example 157, 2-Amino-N-cyclopropyl-5-{2-[(1S)-1-cyclopropylethyl]-7-(3,3-difluorocyclobutoxy)-1-oxo-2,3-dihydro-1H-isoindol-5-yl}pyrazolo[1,5-a]pyrimidine-3-carboxamide]
IC50 ([1]; Table 1, p120γ): < 0.1 µM
IC50 [2, 3]: < 0.1 µM

C[C@@H](C1CC1)N1Cc2cc(-c3ccn4nc(N)c(C(=O)N[C@@H]5CNC[C@H]5O)c4n3)cc(C(F)(F)F)c2C1=O [Example 360]
IC50 ([1]; Table 3, p120γ): < 0.1 µM
IC50 [2, 4]: > 1 µM

C[C@@H](C1CC1)N1Cc2cc(-c3ccn4nc(N)c(C(=O)NC5CC5)c4n3)cc(NS(=O)(=O)N(C)C)c2C1=O [Example 410]
IC50 ([1]; Table 6, p120γ): < 0.1 µM
IC50 [2, 5]: < 0.1 µM

C[C@@H](C1CC1)N1Cc2cc(-c3ccn4nc(N)c(C(=O)Nc5cncc(F)c5)c4n3)cc(OC(F)(F)F)c2C1=O [Example 42, 2-Amino-5-{2-[(1S)-1-cyclopropylethyl]-1-oxo-7-(trifluoromethoxy)-2,3-dihydro-1H-isoindol-5-yl}-N-(5-fluoropyridin-3-yl)pyrazolo[1,5-a]pyrimidine-3-carboxamide]
IC50 ([1]; Table 1, p120γ): < 0.1 µM
IC50 [2, 3]: < 0.1 µM

C[C@@H](C1CC1)N1Cc2cc(-c3ccn4nc(N)c(C(=O)NC5CC5c5ccccc5)c4n3)cc(C(F)(F)F)c2C1=O (stereo partly shown) [Example 365]
IC50 ([1]; Table 3, p120γ): < 0.1 µM
IC50 [2, 4]: 0.1 to 1 µM

C[C@@H](C1CC1)N1Cc2cc(-c3ccn4nc(N)c(C(=O)Nc5cccnc5)c4n3)cc(OC(F)(F)F)c2C1=O [Example 41, (S)-2-Amino-5-(2-(1-cyclopropylethyl)-1-oxo-7-(trifluoromethoxy)isoindolin-5-yl)-N-(pyridin-3-yl)pyrazolo[1,5-a]pyrimidine-3-carboxamide]
IC50 ([1]; Table 1, p120γ): < 0.1 µM
IC50 [2, 3]: < 0.1 µM

C[C@@H](C1CC1)N1Cc2cc(-c3ccn4nc(N)c(C(=O)NC5CC5)c4n3)cc(O[C@@H]3CCOC3)c2C1=O [Example 148, 2-Amino-N-cyclopropyl-5-{2-[(1S)-1-cyclopropylethyl]-1-oxo-7-[(3R)-oxolan-3-yloxy]-2,3-dihydro-1H-isoindol-5-yl}pyrazolo[1,5-a]pyrimidine-3-carboxamide]
IC50 ([1]; Table 1, p120γ): < 0.1 µM
IC50 [2, 3]: < 0.1 µM

Cc1cc(-c2ccn3nc(N)c(C(=O)N4CCC4CO)c3n2)cc2c1C(=O)N(C(C)C1CC1)C2 (stereo not shown) [Example 274]
IC50 ([1]; Table 2, p120γ): < 0.1 µM
IC50 [2, 6]: 0.1 to 1 µM

Cc1cc(-c2ccn3nc(N)c(C(=O)N[C@@H]4CCOc5ccccc54)c3n2)cc2c1C(=O)N([C@@H](C)C1CC1)C2 [Example 285]
IC50 ([1]; Table 2, p120γ): < 0.1 µM
IC50 [2, 6]: > 1 µM

Nc1nn2ccc(-c3cc4c(c(OC(F)(F)F)c3)C(=O)N([C@@H](CO)C3CC3)C4)nc2c1C(=O)NC1CC1 [Example 416]
IC50 ([1]; Table 6, p120γ): < 0.1 µM
IC50 [2, 5]: 0.1 to 1 µM

C[C@@H](C1CC1)N1Cc2cc(-c3ccn4nc(N)c(C(=O)Nc5ccccc5)c4n3)cc(NS(C)(=O)=O)c2C1=O [Example 104, (S)-2-Amino-5-(2-(1-cyclopropylethyl)-7-(methylsulfonamido)-1-oxoisoindolin-5-yl)-N-phenylpyrazolo[1,5-a]pyrimidine-3-carboxamide]
IC50 ([1]; Table 1, p120γ): < 0.1 µM
IC50 [2, 3]: < 0.1 µM

Cc1cc(-c2ccn3nc(N)c(C(=O)NC4CC4)c3n2)cc2c1C(=O)N([C@H](C)c1cccnc1)C2 [Example 333]
IC50 ([1]; Table 2, p120γ): < 0.1 µM
IC50 [2, 6]: > 1 µM

C[C@@H](C1CC1)N1Cc2cc(-c3ccn4nc(N)c(C(=O)NC5C6CC7CC5CC(O)(C7)C6)c4n3)cc(NS(C)(=O)=O)c2C1=O (stereo partly shown) [Example 377]
IC50 [1]: < 0.1 µM
IC50 [2, 7]: < 0.1 µM

Cc1ccncc1NC(=O)c1c(N)nn2ccc(-c3cc4c(c(OC(F)(F)F)c3)C(=O)N([C@@H](C)C3CC3)C4)nc12 [Example 47, (S)-2-Amino-5-(2-(1-cyclopropylethyl)-1-oxo-7-(trifluoromethoxy)isoindolin-5-yl)-N-(4-methylpyridin-3-yl)pyrazolo[1,5-a]pyrimidine-3-carboxamide]
IC50 ([1]; Table 1, p120γ): < 0.1 µM
IC50 [2, 3]: < 0.1 µM

C[C@@H](C1CC1)N1Cc2cc(-c3ccn4nc(N)c(C(=O)N[C@H]5CC[C@H](C6(O)CC6)CC5)c4n3)cc(NS(C)(=O)=O)c2C1=O [Example 92, 2-Amino-5-{2-[(1S)-1-cyclopropylethyl]-7-methanesulfonamido-1-oxo-2,3-dihydro-1H-isoindol-5-yl}-N-[trans-4-(1-hydroxycyclopropyl)cyclohexyl]pyrazolo[1,5-a]pyrimidine-3-carboxamide]
IC50 ([1]; Table 1, p120γ): < 0.1 µM
IC50 [2, 3]: < 0.1 µM

C[C@@H](C1CC1)N1Cc2cc(-c3ccn4nc(N)c(C(=O)N[C@H]5CC[C@H](C6(O)CC6)CC5)c4n3)cc(OC(F)(F)F)c2C1=O [Example 30, 2-Amino-5-(2-((S)-1-cyclopropylethyl)-1-oxo-7-(trifluoromethoxy)isoindolin-5-yl)-N-(trans-4-(1-hydroxycyclopropyl)cyclohexyl)pyrazolo[1,5-a]pyrimidine-3-carboxamide]
IC50 ([1]; Table 1, p120γ): < 0.1 µM
IC50 [2, 3]: < 0.1 µM

Cc1cc(-c2ccn3nc(N)c(C(=O)N[C@H]4CCC[C@H](O)C4)c3n2)cc2c1C(=O)N([C@@H](C)C1CC1)C2 [Example 244]
IC50 ([1]; Table 2, p120γ): < 0.1 µM
IC50 [2, 6]: 0.1 to 1 µM

C[C@@H](C1CC1)N1Cc2cc(-c3ccn4nc(N)c(C(=O)N[C@H]5CCNC5=O)c4n3)cc(NS(C)(=O)=O)c2C1=O [Example 372]
IC50 [1]: < 0.1 µM
IC50 [2, 7]: 0.1 to 1 µM

CNS(=O)(=O)c1cc(-c2ccn3nc(N)c(C(=O)NC4CC4)c3n2)cc2c1C(=O)N([C@@H](C)C(F)(F)F)C2 [Example 139, 2-Amino-N-cyclopropyl-5-[7-(methylsulfamoyl)-1-oxo-2-[(2S)-1,1,1-trifluoropropan-2-yl]-2,3-dihydro-1H-isoindol-5-yl]pyrazolo[1,5-a]pyrimidine-3-carboxamide]
IC50 ([1]; Table 1, p120γ): < 0.1 µM
IC50 [2, 3]: < 0.1 µM

C[C@@H](C1CC1)N1Cc2cc(-c3ccn4nc(N)c(C(=O)NC5(C#N)CCC5)c4n3)cc(NS(C)(=O)=O)c2C1=O [Example 81, 2-Amino-N-(1-cyanocyclobutyl)-5-{2-[(1S)-1-cyclopropylethyl]-7-methanesulfonamido-1-oxo-2,3-dihydro-1H-isoindol-5-yl}pyrazolo[1,5-a]pyrimidine-3-carboxamide]
IC50 ([1]; Table 1, p120γ): < 0.1 µM
IC50 [2, 3]: < 0.1 µM

Cc1cc(-c2ccn3nc(N)c(C(=O)NC(C)CO)c3n2)cc2c1C(=O)N([C@@H]1CCC[C@@H](O)C1)C2 (stereo partly shown) [Example 325]
IC50 ([1]; Table 2, p120γ): < 0.1 µM
IC50 [2, 6]: > 1 µM

C[C@@H](C1CC1)N1Cc2cc(-c3ccn4nc(N)c(C(=O)N[C@@H](CO)C(F)(F)F)c4n3)cc(C(F)(F)F)c2C1=O [Example 361]
IC50 ([1]; Table 3, p120γ): < 0.1 µM
IC50 [2, 4]: 0.1 to 1 µM

Cc1cc(-c2ccn3nc(N)c(C(=O)N[C@H]4CC[C@H](O)CC4)c3n2)cc2c1C(=O)N([C@@H](C)C1CC1)C2 [Example 172]
IC50 ([1]; Table 2, p120γ): < 0.1 µM
IC50 [2, 6]: 0.1 to 1 µM

C[C@@H](C1CC1)N1Cc2cc(-c3ccn4nc(N)c(C(=O)NC5CC5)c4n3)cc(N3CC(F)(F)C3)c2C1=O [Example 436]
IC50 ([1]; Table 6, p120γ): < 0.1 µM
IC50 [2, 5]: 0.1 to 1 µM

Cc1cc(-c2ccn3nc(N)c(C(=O)NC4(c5ccccc5)CC4)c3n2)cc2c1C(=O)N([C@@H](C)C1CC1)C2 [Example 281]
IC50 ([1]; Table 2, p120γ): < 0.1 µM
IC50 [2, 6]: > 1 µM

C[C@@H](C1CC1)N1Cc2cc(-c3ccn4nc(N)c(C(=O)NC5(CO)COC5)c4n3)cc(C(F)(F)F)c2C1=O [Example 338]
IC50 ([1]; Table 3, p120γ): < 0.1 µM
IC50 [2, 4]: 0.1 to 1 µM
